From the COVID Moonshot data (paper PMC7615835)
“And” between values parts separate entries of the source, which are not always exact repeats. Equal values may be shown once.

Biological target: SARS-CoV-2 Main Protease (SARS-CoV-2) (UniProt P0DTD1)

First: O=C(Cc1cccc(Cl)c1)Nc1cncc2oncc12
Second: O=C(Cc1cccc(Cl)c1)Nc1cncc2cc(F)cc(Cl)c12
The IC50 of the first is 70-fold higher: 50.6 µM for the first, 0.718 µM for the second. The second is the more potent here.

Compared with CN(CCC#N)S(=O)(=O)N1Cc2ccc(Cl)cc2C2(CCN(c3cncc4ccccc34)C2=O)C1 (stereo not drawn), N#CC1(CS(=O)(=O)N2Cc3ccc(Cl)cc3C3(CCN(c4cncc5ccc(OCCN6CCCC6)cc45)C3=O)C2)CC1 (stereo not drawn) is 2.7-fold lower in IC50: 0.613 µM for the first, 0.225 µM for the second. The second is the more potent here.

COc1cccc2ncc(NC(=O)Cc3cccc(Cl)c3)n12 and O=C(Cc1cccc(Cl)c1)Nc1cncc2cc(OCC(F)(F)F)ccc12 cannot be ordered by IC50: greater than 99.5 µM for the first, greater than 99.5 µM for the second.

CN1CC(C#N)(CS(=O)(=O)N2Cc3ccc(Cl)cc3C(C(=O)Nc3cncc4ccccc34)C2)C1 (stereo not drawn) and N#CC1(CS(=O)(=O)N2Cc3ccc(Cl)cc3C(C(=O)Nc3cncc4cc(F)ccc34)C2)CC1 (stereo not drawn) are within 1.5-fold of each other in IC50: 0.151 µM for the first, 0.222 µM for the second.

Going from CC(C)S(=O)(=O)c1ccc(N(C(=O)c2cnc[nH]2)C(C(=O)NCCc2cccc(F)c2)c2cccnc2)cc1 (stereo not drawn) to COc1ccc(N(C(=O)c2cnc[nH]2)C(C(=O)NCCc2cccc(F)c2)c2cccnc2)cc1 (stereo not drawn), the IC50 falls from greater than 99 µM to 93.7 µM.

Compared with O=C(Nc1c[nH]c(=O)c2ccccc12)C1CCOc2ccc(Cl)cc21 (stereo not drawn), CNC(=O)C1(CC(=O)Nc2cncc3ccccc23)CCOc2ccc(Cl)cc21 (stereo not drawn) is lower in IC50: greater than 99.5 µM for the first, 30.7 µM for the second.

O=C(Cc1cc(Cl)cc(-c2nnn[nH]2)c1)Nc1cncc2ccccc12 and O=C(Cc1cc(Cl)cc(Nc2ccccc2)c1)Nc1cncc2ccccc12 cannot be ordered by IC50: 21.4 µM for the first, greater than 9.95 µM for the second.

Going from N#Cc1cccc(CN2CCN(C(=O)CCl)CC2)c1 to O=C(CCl)N1CCN(Cc2cc(O)ccc2O)CC1, the IC50 rises from 19.7 µM to 37.4 µM (1.9-fold). The first is the more potent here.

Going from O=C(Cc1cc(Cl)cc(Nc2c(F)cc(Br)cc2F)c1)Nc1cncc2ccccc12 to O=C(Cc1cc(Cl)cc(Nc2cc(Cl)cc(Cl)c2O)c1)Nc1cncc2ccccc12, the IC50 rises from 1.54 µM to 9.19 µM (6-fold). The first is the more potent here.

O=C(NCCCO)c1ccc(N(C(=O)c2cocn2)C(C(=O)NCCc2cccc(F)c2)c2cccnc2)cc1 (stereo not drawn) and CC(C)(C)c1ccc(N(C(=O)c2nc3ncc(CCO)cn3n2)C(C(=O)NCCc2cccc(F)c2)c2cccnc2)cc1 (stereo not drawn) cannot be ordered by IC50: greater than 99.5 µM for the first, greater than 99.5 µM for the second.

N#Cc1cc(N(C(=O)c2ccco2)C(C(=O)NCCc2cccc(F)c2)c2cccnc2)ccc1Oc1ccc(C(F)(F)F)cc1 (stereo not drawn) and O=C(NCCc1cccc(F)c1)C(c1cccnc1)N(C(=O)c1ccco1)c1cccc(CSC2CCOCC2)c1 (stereo not drawn) cannot be ordered by IC50: greater than 99.5 µM for the first, greater than 99.5 µM for the second.

Nc1ccc2c(c1)C(=O)N(c1cc(Cl)cc(CC(=O)Nc3cncc4ccccc34)c1)C2=O and O=C(Cc1cc(Cl)cc(NCc2ccc(F)c(Cl)c2)c1)Nc1cncc2ccccc12 are within 1.5-fold of each other in IC50: 1.86 µM for the first, 2.49 µM for the second.

CC(c1ccccc1)N(C(=O)c1cnc[nH]1)C(C(=O)NCCc1cccc(F)c1)c1cccnc1 (stereo not drawn) and Cn1cc(C(C(=O)NCCc2cccc(F)c2)N(C(=O)c2cocn2)c2ccc(C(C)(C)C)cc2)ccc1=O (stereo not drawn) cannot be ordered by IC50: greater than 99 µM for the first, greater than 99.5 µM for the second.

O=C(CCc1nc2ccccc2[nH]1)N1CCC(CCc2ccccc2)CC1 and COc1cccc(C(NC(=O)Cc2cccc(Cl)c2)c2nc3ccccc3[nH]2)c1 (stereo not drawn) cannot be ordered by IC50: greater than 99.5 µM for the first, greater than 99.5 µM for the second.

Compared with Cc1cc(C(F)(F)F)nc2c1c(N)nn2C(=O)C1CCOc2ccc(Cl)cc21 (stereo not drawn), O=C1NCC(C(=O)Nc2cncc3cc(F)ccc23)c2cc(Cl)ccc21 (stereo not drawn) is lower in IC50: greater than 99.5 µM for the first, 1.15 µM for the second. The second is the more potent here.

Going from CN1CCN(c2ccc(Nc3cc(Cl)cc(CC(=O)Nc4cncc5ccccc45)c3)cc2F)CC1 to COc1c(Cl)cccc1Nc1cc(Cl)cc(CC(=O)Nc2cncc3ccccc23)c1, the IC50 falls from 2.8 µM to 1.68 µM (1.7-fold).

Compared with NC(=O)C1Cc2nc[nH]c2CN1C(=O)CC1(C(=O)Nc2cncc3ccccc23)CCOc2ccc(Cl)cc21 (stereo not drawn), CN(C)C(=O)CN1CCc2ccc(Cl)cc2C1C(=O)Nc1cncc2ccccc12 (stereo not drawn) is 6-fold lower in IC50: 9.28 µM for the first, 1.54 µM for the second.

CN(Cc1ccccc1Nc1cc(Cl)cc(CC(=O)Nc2cncc3ccccc23)c1)C1CCCCC1 and N#Cc1cnn(-c2ccc([N+](=O)[O-])cc2)c1Nc1cc(Cl)cc(CC(=O)Nc2cncc3ccccc23)c1 are within 1.5-fold of each other in IC50: 2.22 µM for the first, 1.84 µM for the second.

C[C@@H]1CC[C@@]2(OC1)O[C@H]1C[C@H]3[C@@H]4CC=C5C[C@@H](O)CC[C@]5(C)[C@H]4CC[C@]3(C)[C@]1(O)[C@@H]2C (stereo in doubt) and CS(=O)(=O)c1ccccc1C(=O)N1CCC(C2CCNC2)CC1 (stereo not drawn) cannot be ordered by IC50: greater than 99.5 µM for the first, greater than 99.5 µM for the second.

Going from O=C1CCCN(S(=O)(=O)c2cccc(F)c2)CC1 to CC(C)C[C@@H]1CN(C(=O)CCl)CCN1Cc1cccc(Cl)c1 (stereo in doubt), the IC50 falls from greater than 99.5 µM to 0.784 µM.

Going from O=C(Nc1cnccc1Cl)c1cc(Cl)ccc1O to CC(=O)NCc1cc(Cl)cc(CC(=O)Nc2cnccc2C)c1, the IC50 rises from 24.2 µM to 41.3 µM (1.7-fold). The first is the more potent here.

Going from C[C@H]1CN(C(=O)OC(C)(C)C)CCN1c1cc(Cl)cc(CC(=O)Nc2cncc3ccccc23)c1 (stereo in doubt) to CNC(=O)CN1CC(C)(C(=O)Nc2cncc3cc(F)ccc23)c2cc(Cl)ccc2S1(=O)=O (stereo not drawn), the IC50 falls from 2.19 µM to 0.248 µM (8.8-fold). The second is the more potent here.

O=C1NCC(C(=O)Nc2cnc3ccccn23)c2cc(Cl)ccc21 (stereo not drawn) gave an IC50 of 5.93 µM.

In the case of Cn1nc(C(=O)NC(C)(C(=O)Nc2cncc3ccccc23)c2ccc(Cl)c(Cl)c2)cc1C#N (stereo not drawn), the IC50 is reported as 7.58 µM and 14.1 µM.
For O=C(CCl)N1CCN(Cc2cccs2)CC1, the IC50 was 5.66 µM and 6.77 µM.
CC1CN(C)CCN1C(=O)CC1(C(=O)Nc2cncc3ccccc23)CCOc2ccc(Cl)cc21 (stereo not drawn) was tested, and the IC50 was 7.87 µM and 4.85 µM.
